Test results published in publication PMC8047011, “Enantiomers of 2-methylglutamate and 2-methylglutamine selectively impact mouse brain metabolism and behavior” (Scientific Reports, 2021).
pIC50: −log10 of the molar value.

Key:
human glutaminase GLS1 = biological target: T1, human glutaminase GLS1 (Homo sapiens, UniProt O94925); assay: Catalysis of 2MeGln hydrolysis by GLS1 glutaminase; format: biochemical
T1 sequence (O94925 55-669): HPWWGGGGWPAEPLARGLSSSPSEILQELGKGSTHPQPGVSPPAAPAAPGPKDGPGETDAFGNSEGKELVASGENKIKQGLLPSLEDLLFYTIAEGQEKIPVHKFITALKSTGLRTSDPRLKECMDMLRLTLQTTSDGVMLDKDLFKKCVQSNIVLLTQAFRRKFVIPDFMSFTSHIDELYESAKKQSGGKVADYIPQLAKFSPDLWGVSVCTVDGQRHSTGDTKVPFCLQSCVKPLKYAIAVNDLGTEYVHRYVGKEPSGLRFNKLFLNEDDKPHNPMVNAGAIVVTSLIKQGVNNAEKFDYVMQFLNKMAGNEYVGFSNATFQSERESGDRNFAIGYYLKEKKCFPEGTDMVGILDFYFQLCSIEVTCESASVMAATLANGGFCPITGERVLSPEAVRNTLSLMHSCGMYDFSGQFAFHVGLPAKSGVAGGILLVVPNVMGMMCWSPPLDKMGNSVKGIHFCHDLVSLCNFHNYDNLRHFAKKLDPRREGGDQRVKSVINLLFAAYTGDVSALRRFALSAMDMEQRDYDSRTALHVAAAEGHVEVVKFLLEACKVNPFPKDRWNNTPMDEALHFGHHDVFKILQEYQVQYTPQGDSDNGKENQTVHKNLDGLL
Method: The procedure was adapted from an existing protocol. To a reaction mixture in a 1.5 mL microcentrifuge tube containing 10 mM rac-2MeGln or L-Gln-^13C2 in 100 mM phosphate pH 7.4 buffer made in 20% atom ^18O water, recombinant GLS1 (final concentration: 5 ng/mL) was added. The tubes were incubated in a preheated thermomixer at 37 °C and periodically shaken at 600 rpm (30 s on, 30 s off). 5 μL aliquots were collected in triplicate every 5 min and immediately diluted with 195 μL of cold 60% ACN containing 10 μM Glu-d5 and Gln-d5 as internal standards in a 96 well plate. After collecting all samples, the plate was shaken at 1000 rpm for 5 min at room temperature, and then stored at − 80 °C. Before analysis the plate was thawed and 10 μL aliquots of the extracted reaction mixtures were diluted with 190 μL of 90% acetonitrile.
The quantification of the newly formed 2MeGlu in the presence of the preexisting trace amounts was performed in the following way. Peak area ratio of Glu-^13C2 to Glu-^13C2^18O was calculated in all samples containing Glu-^13C2. The mean ratio value was then applied to calculate the hypothetical peak area of the newly formed 2MeGlu based on the directly measured 2MeGlu-^18O peak area. The ratio of the newly formed 2MeGlu peak area and the total 2MeGlu peak area was applied to calculate the concentration of the newly formed 2MeGlu from the total 2MeGlu concentration determined directly using the calibration curve.

GluN2A = biological target: T2, GluN2A (Homo sapiens, UniProt Q12879); assay: FLIPR functional receptor assay, GluN2A; format: cell-based
T2 construct: host or cells: HEK 293
Method: Receptor functional & binding assays
Functional assays of all GABAA, NMDA (GluN2A–GluN2D) and AMPA (GluA2) receptor subunits were performed by SB Drug Discovery as a part of their CNS discovery panel using FLIPR technology. Briefly, receptor-expressing HEK 293 cell lines were incubated in a red membrane potential dye in HEPES:HBSS pH 7.4 buffer and the fluorescence (λex: 488, λex: 510–570) was monitored over time as the test compounds and/or reference compounds were added to the solution. In agonist assay, only test compounds were added. In positive allosteric modulator assay, cells were preincubated with test compounds and then low concentration (approximately EC20) of an appropriate agonist was added. In antagonist assay, cells were preincubated with test compounds and then high concentration (approximately EC80) of an appropriate agonist was added. For GABAA assays, GABA was used as the agonist, picrotoxin was used as the reference antagonist and allopregnanolone was used as the reference positive allosteric modulator (PAM). For NMDA assays, a mixture of glutamate, glycine and CaCl2 was used as the agonist, MK801 was the reference antagonist and pregnenolone sulfate or GNE 9278 were used as reference PAMs. […] All compounds were tested at 7 concentration points in triplicate and EC50/IC50 was determined where applicable. […]

T2 sequence (Q12879 23-1464, other chains not shown): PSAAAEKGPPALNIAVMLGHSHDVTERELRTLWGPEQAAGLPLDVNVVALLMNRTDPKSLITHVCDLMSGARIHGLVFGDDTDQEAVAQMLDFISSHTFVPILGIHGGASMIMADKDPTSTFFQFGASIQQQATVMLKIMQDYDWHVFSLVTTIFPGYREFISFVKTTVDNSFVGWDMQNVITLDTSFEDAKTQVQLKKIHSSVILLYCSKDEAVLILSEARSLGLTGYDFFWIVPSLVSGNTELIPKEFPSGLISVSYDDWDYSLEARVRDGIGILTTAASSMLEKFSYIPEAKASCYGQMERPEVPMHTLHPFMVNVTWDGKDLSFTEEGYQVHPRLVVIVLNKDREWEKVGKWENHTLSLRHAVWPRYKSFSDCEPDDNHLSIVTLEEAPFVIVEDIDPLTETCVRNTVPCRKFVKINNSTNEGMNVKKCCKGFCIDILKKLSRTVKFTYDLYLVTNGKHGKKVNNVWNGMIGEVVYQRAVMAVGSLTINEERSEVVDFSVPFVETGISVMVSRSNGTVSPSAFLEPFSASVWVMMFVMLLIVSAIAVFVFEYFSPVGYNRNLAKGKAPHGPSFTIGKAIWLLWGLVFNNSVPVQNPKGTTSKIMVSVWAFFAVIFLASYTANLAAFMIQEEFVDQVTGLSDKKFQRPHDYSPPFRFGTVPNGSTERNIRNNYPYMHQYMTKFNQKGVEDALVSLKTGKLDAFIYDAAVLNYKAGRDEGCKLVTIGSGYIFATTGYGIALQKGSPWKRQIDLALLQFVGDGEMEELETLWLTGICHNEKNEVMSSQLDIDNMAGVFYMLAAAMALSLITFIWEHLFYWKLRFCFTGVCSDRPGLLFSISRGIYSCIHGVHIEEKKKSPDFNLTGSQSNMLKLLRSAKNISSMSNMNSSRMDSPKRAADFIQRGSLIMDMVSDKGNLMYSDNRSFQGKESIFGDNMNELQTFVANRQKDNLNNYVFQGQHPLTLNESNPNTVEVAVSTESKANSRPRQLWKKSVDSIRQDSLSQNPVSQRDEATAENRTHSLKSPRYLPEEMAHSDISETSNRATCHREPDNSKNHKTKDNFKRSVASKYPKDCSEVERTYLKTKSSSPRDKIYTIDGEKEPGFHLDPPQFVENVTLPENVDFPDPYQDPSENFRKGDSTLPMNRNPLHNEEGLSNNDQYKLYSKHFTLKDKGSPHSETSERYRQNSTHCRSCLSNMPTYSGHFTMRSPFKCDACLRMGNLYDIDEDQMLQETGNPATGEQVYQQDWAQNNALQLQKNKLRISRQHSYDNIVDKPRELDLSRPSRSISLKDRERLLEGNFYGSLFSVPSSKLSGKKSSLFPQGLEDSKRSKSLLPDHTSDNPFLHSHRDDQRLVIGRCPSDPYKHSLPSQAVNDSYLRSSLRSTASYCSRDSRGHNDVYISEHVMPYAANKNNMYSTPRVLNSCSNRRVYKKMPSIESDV

Structure (SMILES)	Substrate for GLS1 (human glutaminase GLS1)	Apparent GLS1 reaction rate, fold lower compared to Gln (human glutaminase GLS1; 10 mM substrate)	Apparent reaction rate of GLS1 hydrolysis (human glutaminase GLS1; 10 mM substrate, 5 ng/mL enzyme, phosphate pH 7.4)	Activity against GluN2A (in words) (GluN2A)	pIC50 (GluN2A; antagonist mode, top test concentration 100 μM)
CC(N)(CCC(N)=O)C(=O)O (racemic) [rac-2MeGln, rac-2-methylglutamine]	at least one enantiomer of 2MeGln is a substrate for human GLS1, albeit relatively slow	approximately 35 fold	1.9 µM/min		
C[C@@](N)(CCC(=O)O)C(=O)O [(R)-2MeGlu, (R)-2-methylglutamic acid]				weak antagonist behavior	4.16
